Measured values as given in the supplement of paper PMC10307832.

Experiments:
FG-4592 + Dasatinib = compound: Cc1nc(C(=O)NCC(=O)O)c(O)c2ccc(Oc3ccccc3)cc12 [FG-4592] + Cc1nc(Nc2ncc(C(=O)Nc3c(C)cccc3Cl)s2)cc(N2CCN(CCO)CC2)n1 [Dasatinib] (partner 0.075 µM); assay: relative viability (nuclei count vs DMSO), 5 days (fraction); higher = more cells survive
In short: (§1)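 Lung cancer cell lines, seeded in 1536-well plates, were treated the following day by pin tool with a single drug or with five library-drug doses (not always all listed) in √10 steps on top of a fixed anchor-drug dose. Cells were fixed and nuclei stained in one step after 5 days, and nuclei were counted. Relative viability is the nuclei count for treated wells divided by that for vehicle wells, reported as medians of duplicate plates.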

IU1-47 + Trametinib = compound: CC1=CC(=C(N1C2=CC=C(C=C2)Cl)C)C(=O)CN3CCCCC3 [IU1-47] + CC(=O)Nc1cccc(-n2c(=O)n(C3CC3)c(=O)c3c(Nc4ccc(I)cc4F)n(C)c(=O)c(C)c32)c1 [Trametinib] (partner 0.02 µM); assay: as above
In short: as §1

Cell Line | relative viability (FG-4592 + Dasatinib; first compound 0.08 µM) | relative viability (FG-4592 + Dasatinib; first compound 0.253 µM) | relative viability (FG-4592 + Dasatinib; first compound 0.8 µM) | relative viability (FG-4592 + Dasatinib; first compound 2.53 µM) | relative viability (FG-4592 + Dasatinib; first compound 8 µM) | relative viability (IU1-47 + Trametinib; first compound 0.08 µM) | relative viability (IU1-47 + Trametinib; first compound 0.253 µM) | relative viability (IU1-47 + Trametinib; first compound 0.8 µM) | relative viability (IU1-47 + Trametinib; first compound 2.53 µM) | relative viability (IU1-47 + Trametinib; first compound 8 µM)
CAL-12T | 0.378 | 0.424 | 0.406 | 0.361 | 0.365 | 0.353 | 0.368 | 0.309 | 0.289 | 0.32
NCI-H520 | 0.171 | 0.206 | 0.133 | 0.157 | 0.157 | 0.661 | 0.671 | 0.821 | 0.456 | 0.633
NCI-H1755 | 0.416 | 0.435 | 0.34 | 0.45 | 0.406 | 0.794 | 0.756 | 0.891 | 0.812 | 0.794
NCI-H2023 | 0.612 | 0.529 | 0.54 | 0.522 | 0.377 | 0.563 | 0.636 | 0.607 | 0.608 | 0.557
NCI-H2009 | 0.323 | 0.172 | 0.267 | 0.283 | 0.27 | 0.257 | 0.3 | 0.254 | 0.274 | 0.25
